From US9682966B2, “Kappa opioid ligands” (The Scripps Research Institute, priority 2012, dated 2017)

molecular target: kappa opioid receptor (OPRK1) (Homo sapiens (Human), UniProt P41145); test: OPRK1 antagonist assay (b-arrestin-2-TEV / b-lactamase reporter, EC80 U-50488 challenge); format: cell-based; details: OPRK1 antagonist assay vs EC80 U-50488
Sequence (P41145 whole entry): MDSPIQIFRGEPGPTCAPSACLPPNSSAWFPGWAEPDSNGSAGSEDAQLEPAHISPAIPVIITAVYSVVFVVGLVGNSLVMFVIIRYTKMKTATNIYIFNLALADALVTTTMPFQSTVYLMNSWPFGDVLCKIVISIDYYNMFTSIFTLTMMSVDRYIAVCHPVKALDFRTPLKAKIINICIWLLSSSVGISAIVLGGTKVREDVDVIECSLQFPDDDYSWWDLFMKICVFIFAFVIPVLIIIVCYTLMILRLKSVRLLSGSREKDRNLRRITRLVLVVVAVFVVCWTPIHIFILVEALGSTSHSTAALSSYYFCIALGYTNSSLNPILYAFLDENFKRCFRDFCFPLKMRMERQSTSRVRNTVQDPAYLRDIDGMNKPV

Compound	IC50
COC1CN(c2nc3ccc(C)cc3cc2-c2noc(C)n2)CCC1NC1CCCCC1 (stereo not drawn) [compound 314]	2 nM
Cc1ccc2nc(N3CCC(N)CC3)c(-c3nc(C)no3)cc2c1 [C82]	> 10000 nM
Cc1ccc2nc(N3CCC(NC[C@H](C)O)CC3)c(-c3noc(C)n3)cc2c1 [compound 424]	422 nM
COC(=O)c1cc(Br)cnc1N1CCC(Nc2ccccc2)CC1 [C7]	> 10000 nM
CO[C@H]1CN(c2nc(C)ccc2-c2noc(C)n2)CC[C@H]1NC1CCCCC1 [compound 429]	214 nM
CO[C@H]1CN(c2ncc(C)cc2-c2nc(C3CC3)no2)CC[C@H]1NC1CCCCC1 [compound 398]	18 nM
CO[C@@H]1CN(c2nc(C)c(C)cc2-c2nc(C)no2)CC[C@@H]1NC1CCCC1 [compound 346]	137 nM
CCc1noc(-c2cc(C)cnc2N2CCC(NC3CCCCC3)C(OC)C2)n1 (stereo not drawn) [compound 391]	105 nM
Cc1ccc2nc(N3CCC(C)(NC4CCOCC4)CC3)c(-c3nc(C)no3)cc2c1 [C74]	> 10000 nM
COC(=O)c1cc(NS(C)(=O)=O)cnc1N1CCC(NC2CCCCC2)CC1 [C30]	> 10000 nM
CO[C@@H]1CN(c2nc3ccc(C)cc3cc2-c2nc(C)no2)CC[C@@H]1NC1CCCC1 [compound 347]	32 nM
O=Cc1cc(Br)cnc1N1CCC(NC2CCCCC2)CC1 [C45]	> 10000 nM
Cc1noc(-c2cc3c(nc2N2CC[C@@H](NC4CCCCC4)[C@H](O)C2)CCCC3)n1 [compound 192]	199 nM
Cc1cc(-c2noc(C)n2)c(N2CCC(NC3CCCC[C@@H]3O)CC2)nn1 (stereo partly drawn) [compound 452]	47 nM
COC(=O)c1cc(C#N)c(N2CCC(NC3CCCCC3)C(CO)C2)nc1C (stereo not drawn) [C56]	> 20000 nM
Cc1ccc2nc(N3CCC(NCC(C)C)CC3)c(-c3noc(C)n3)cc2c1 [compound 413]	22 nM
CO[C@@H]1CN(c2ncc(C)cc2-c2nc(C)no2)CC[C@@H]1NC1CCCC1 [compound 345]	104 nM
COC(=O)c1cc(C2=CCCCC2)cnc1N1CCC(NC2CCCCC2)CC1 [C17]	> 10000 nM
O[C@@H]1CCCC[C@H]1NC1CCN(c2ccc(Cl)cn2)CC1 [C12]	> 10000 nM
CCOC(=O)c1cc(C(N)=O)c(C)nc1N1CCC(NC2CCCCC2)CC1 [C28]	> 10000 nM
CO[C@H]1CN(c2nc(C)ccc2-c2ccc(C)nn2)CC[C@H]1NC1CCCCC1 [compound 426]	1970 nM
CO[C@@H]1CN(c2ncc(C)cc2-c2noc(C)n2)CC[C@@H]1NC1CCCCC1 [compound 399]	953 nM

Compound	IC50
Cc1cnc(N2CCC(NC3CCOCC3)CC2)c(-c2nc(C)no2)c1 [compound 389]	153 nM
Cc1ccc2nc(N3CCC(NC4CCCCC4CO)CC3)c(-c3nc(C)no3)cc2c1 (stereo not drawn) [compound 368]	7 nM
CO[C@H]1CN(c2ncc(C)cc2-c2noc(C)n2)CC[C@H]1NC1CCCCC1 [compound 395]	49 nM
CCc1cnc(N2CCC(NC3CCCCC3)C(OC)C2)c(-c2nc(C)no2)c1 (stereo not drawn) [compound 379]	525 nM
CO/N=C/c1cc2cc(C)ccc2nc1N1CCC(NC2CCCCC2)CC1 [compound 459]	15 nM
FC(F)(F)c1cc(Br)cnc1N1CCC(NC2CCCCC2)CC1 [C25]	> 10000 nM
Cc1ccc2nc(NCCCNC3CCCCC3)c(-c3nc(C)no3)cc2c1 [C86]	> 10000 nM
O=Cc1cc(Br)cnc1N1CCC(NC2CCCCC2)C(O)C1 (stereo not drawn) [C47]	> 10000 nM
Cc1cnc(N2CCC(NCC(C)C)CC2)c(-c2cc(C)no2)c1 [compound 381]	860 nM
COC(=O)c1cc(-c2ccccc2)cnc1N1CCC(NC2CCCCC2)CC1 [C13]	> 10000 nM
COC1CN(c2ncc(C)cc2-c2cc(C)no2)CCC1NC1CCCCC1 (stereo not drawn) [compound 380]	128 nM
Cc1cnc(N2CCC(NC3CCCCC3)CC2)c(-c2nc(C)no2)c1 [compound 388]	20 nM
CC(=O)c1cc(-c2ccccc2)cnc1N1CCC(NC2CCCCC2)C(CO)C1 (stereo not drawn) [C64]	> 10000 nM
CO[C@H]1CN(c2nc3ccccc3nc2-c2nc(C)no2)CC[C@H]1NC1CCCCC1 [compound 333]	6.6 nM
O=C(c1ccccc1)N1CCC(N[C@@H]2CCCC[C@H]2O)CC1 [C10]	> 10000 nM
COC(=O)c1cnc(N2CCC(NC3CCCCC3)C(CO)C2)c(Br)c1 (stereo not drawn) [compound 102]	13000 nM
Cc1ccc2nc(N3CCC(NC4CCC[C@@H]4O)CC3)c(-c3ccc(C)nn3)cc2c1 (stereo partly drawn) [compound 444]	634 nM
Cc1ccc2nc(N3CCC(NC4CCCC[C@@H]4O)CC3)c(-c3ccc(C)nn3)cc2c1 (stereo partly drawn) [compound 443]	33 nM
Cc1ccc2nc(N3CCC(NC4CCC4)CC3)c(-c3nc(C)no3)cc2c1 [compound 370]	37 nM
Cc1cc(Cl)nc(N2CCC(N[C@@H]3CCCC[C@H]3O)CC2)c1C#N [C11]	> 10000 nM
COC(=O)c1cc(NC(=O)CCN(C)C)cnc1N1CCC(NC2CCCCC2)CC1 [C33]	> 10000 nM
Cc1cc(-c2noc(C)n2)c(N2CCC(NC3CCCCC3)CC2)nn1 [compound 420]	3 nM

Compound	IC50
Cc1noc(-c2cc(C)c(C)nc2N2CCC(NCC(C)C)CC2)n1 [compound 394]	161 nM
COC1CN(c2nc3ccccc3cc2-c2cccnn2)CCC1NC1CCCCC1 (stereo not drawn) [compound 463]	54 nM
Cc1cnc(N2CCC(NCC(C)C)CC2)c(-c2nc(C3CC3)no2)c1 [compound 397]	1280 nM
Cc1ccc2nc(N3CCC(C)(NC4CCCCC4)CC3)c(-c3nc(C)no3)cc2c1 [C75]	> 10000 nM
CCN(CC)C(=O)c1cc(Br)cnc1N1CCC(NC2CCCCC2)CC1 [C18]	> 10000 nM
O=C(O)c1cc(Br)cnc1N1CCC(NC2CCCCC2)CC1 [C29]	> 10000 nM
COC(=O)c1cc(NC(=O)CN)cnc1N1CCC(NC2CCCCC2)CC1 [C41]	> 10000 nM
COC(=O)c1cc(Br)cnc1N1CCC(CN)CC1 [C16]	> 10000 nM
COC(=O)c1cc(Br)cnc1N1CCC(NC(=O)OC(C)(C)C)CC1 [C2]	> 10000 nM
CO[C@H]1CN(c2nc3ccc(C)cc3cc2-c2ccc(C)nn2)CC[C@H]1NC1CCCCC1 [compound 439]	231 nM
COC1CN(c2nc3ccccc3cc2-c2ncc(C)o2)CCC1NC1CCCCC1 (stereo not drawn) [C79]	> 10000 nM
CO[C@@H]1CN(c2nc3ccc(C)cc3cc2-c2nc(C3CC3)no2)CC[C@@H]1NC1CCCC1 [compound 340]	6 nM
Cc1ccc2nc(N3CCC(NC4CCCCC4)C(CO)C3)c(-c3noc(C)n3)cc2c1 (stereo not drawn) [compound 328]	0.72 nM
Cc1ccc2nc(N3CCC(NC4CCC[C@@H]4O)CC3)c(-c3noc(C)n3)cc2c1 (stereo partly drawn) [compound 418]	50 nM
Cc1ccc2nc(N3CCC(NCC(C)C)CC3)c(-c3ccc(C)nn3)cc2c1 [compound 442]	324 nM
Cc1ccc2nc(N3CCC(NC(=O)C4CCCCC4)CC3)c(-c3nc(C)no3)cc2c1 [C77]	> 10000 nM
CO[C@@H]1CN(c2ncc(C)cc2-c2nc(C)no2)CC[C@@H]1NC1CCCCC1 [compound 341]	76 nM
CC(=O)c1cc(C2CC2)cnc1N1CCC(NC2CCCCC2)C(CO)C1 (stereo not drawn) [C63]	> 10000 nM
COC1CN(c2ncc(C)cc2-n2cc(C)cn2)CCC1NC1CCCCC1 (stereo not drawn) [C92]	58000 nM
COC(=O)c1cc(NC(=O)c2cc(C)on2)cnc1N1CCC(NC2CCCCC2)CC1 [C34]	> 10000 nM
Cc1nc(-c2cc3cc(F)ccc3nc2N2CCC(NC3CCCCC3)CC2)no1 [compound 489]	616 nM
COC(=O)c1cnc(N2CCC(N(C(=O)OC(C)(C)C)C3CCCCC3)CC2)c(Br)c1 [C44]	> 10000 nM
